These results are taken from US7893074B2, “2, 4-pyrimidinediamines useful in the treatment of neoplastic diseases, inflammatory and immune system disorders” (Novartis AG, priority 2003, dated 2011).

Assay [1] concerns the target FAK (Mus musculus, UniProt P34152). Nature of the assay: Phos IC50 (phosphorylation). In kind it is cell-based.
For assay [2], the system named is Mouse mammary carcinoma 4T1 cells. Briefly: Anchorage-independent tumor cell growth assay. In kind it is cell-based. On the procedure: Cells are cultured for 2 h and inhibitors are added at various concentrations in a final concentration of 0.1% DMSO. After 48 h, cell growth is assayed with the cell counting kit-8 (Wako Pure Chemical), which uses a water soluble tetrazolium salt WST8. Twenty μL of the reagent is added into each well and cells are further cultured for 2 h. The optical density is measured at 450 nm.

Assay [3] deals with Focal Adhesion Kinase (FAK) (Homo sapiens, UniProt Q05397). Briefly: FAK assay system (Focal Adhesion Kinase inhibition). It is filed as biochemical. To be noted: read-out: FAK IC50.

Where two headings read alike, the source gives them in different places. A value given as a limit tells only on which side of the number the result lay.

Sequence of FAK (P34152 2-1052): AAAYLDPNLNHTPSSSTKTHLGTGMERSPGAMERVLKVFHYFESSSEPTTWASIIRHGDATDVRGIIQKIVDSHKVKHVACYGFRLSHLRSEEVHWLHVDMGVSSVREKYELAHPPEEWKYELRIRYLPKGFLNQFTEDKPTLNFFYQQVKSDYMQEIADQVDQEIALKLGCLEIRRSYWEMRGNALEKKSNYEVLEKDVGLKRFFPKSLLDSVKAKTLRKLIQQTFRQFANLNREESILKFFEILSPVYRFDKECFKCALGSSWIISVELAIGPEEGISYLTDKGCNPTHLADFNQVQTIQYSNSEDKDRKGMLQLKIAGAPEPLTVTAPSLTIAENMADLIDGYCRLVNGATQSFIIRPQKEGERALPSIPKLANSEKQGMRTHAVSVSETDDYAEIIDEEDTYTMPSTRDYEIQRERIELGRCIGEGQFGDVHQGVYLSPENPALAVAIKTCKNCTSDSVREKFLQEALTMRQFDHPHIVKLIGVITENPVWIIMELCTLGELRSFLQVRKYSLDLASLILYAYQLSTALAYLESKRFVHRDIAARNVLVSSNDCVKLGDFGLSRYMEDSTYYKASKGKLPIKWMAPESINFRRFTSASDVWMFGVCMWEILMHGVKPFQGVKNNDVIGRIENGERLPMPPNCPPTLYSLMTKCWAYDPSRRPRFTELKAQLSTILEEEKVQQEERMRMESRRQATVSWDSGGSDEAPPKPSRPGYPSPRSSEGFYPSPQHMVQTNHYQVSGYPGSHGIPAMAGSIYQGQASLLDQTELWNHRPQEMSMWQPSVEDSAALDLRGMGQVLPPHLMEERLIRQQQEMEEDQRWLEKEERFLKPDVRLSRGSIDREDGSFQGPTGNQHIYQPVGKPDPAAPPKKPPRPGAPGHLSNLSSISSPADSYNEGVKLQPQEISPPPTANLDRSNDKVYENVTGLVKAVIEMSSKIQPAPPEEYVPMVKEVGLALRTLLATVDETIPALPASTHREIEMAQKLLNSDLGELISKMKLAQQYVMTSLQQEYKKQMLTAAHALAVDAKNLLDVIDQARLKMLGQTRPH
Sequence of Focal Adhesion Kinase (FAK) (Q05397 384-706): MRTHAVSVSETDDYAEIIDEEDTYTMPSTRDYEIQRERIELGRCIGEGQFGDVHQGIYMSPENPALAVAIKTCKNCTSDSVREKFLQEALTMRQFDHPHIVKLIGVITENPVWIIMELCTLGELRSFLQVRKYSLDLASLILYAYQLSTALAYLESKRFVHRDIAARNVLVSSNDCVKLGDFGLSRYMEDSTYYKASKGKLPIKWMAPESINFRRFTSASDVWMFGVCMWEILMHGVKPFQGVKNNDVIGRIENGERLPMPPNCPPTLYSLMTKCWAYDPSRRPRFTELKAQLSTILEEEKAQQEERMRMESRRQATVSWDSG

`COc1cc(N2CCC(N3CCCC3)CC2)ccc1Nc1ncc(Cl)c(Nc2ccccc2S(=O)(=O)C(C)C)n1` [Example 28-9]: the half-maximal inhibitory concentration (IC50) (in general, the concentration needed to halve the response being measured) is 500 nM in assay [1]; 360 nM in assay [2] (Mus musculus, 4T1); 3.1 nM in assay [3].
On the same counts, the results for `COc1c(Nc2ncc(Cl)c(Nc3ccccc3S(=O)(=O)NC(C)C)n2)ccc(OC2CCN(C)CC2)c1F` [Example 19-21] are above 10000 nM, 1710 nM and 84 nM.
For `CCCS(=O)(=O)c1ccccc1Nc1nc(Nc2ccc(N3CCN(C(=O)CC)CC3)cc2OC)ncc1Cl` [Example 26-8], in that order: 10 nM, 180 nM and 2.9 nM.
For `CNC(=O)c1cc(N2CCN(C)CC2)ccc1Nc1nc(Nc2ccc(N3CCOCC3)cc2OC)ncc1Cl` [Example 35-1], in that order: above 10000 nM, 1430 nM and 6.8 nM.
Turning to `CNC(=O)c1cc(F)ccc1Nc1nc(Nc2ccc(N3CCN(C(C)=O)CC3)cc2OC)ncc1Cl` [Example 11-4], the IC50 was above 10000 nM in assay [1]; 3200 nM in assay [2] (Mus musculus, 4T1); 4.3 nM in assay [3].
For `CCC[S+]([O-])c1ccccc1Nc1nc(Nc2ccc(F)cc2OC)ncc1Cl` (stereo not drawn) [Example 34-7], in that order: above 10000 nM, 2700 nM and 27 nM.
On the same counts, the results for `CNS(=O)(=O)c1ccccc1Nc1nc(Nc2ccc(OCCCN3CCOCC3)cc2OC)ncc1Br` [Example 3-70] are 20 nM, 130 nM and 3.5 nM.
On the same counts, the results for `CNS(=O)(=O)c1ccccc1Nc1nc(Nc2cc(N3CCN(C)CC3)ccc2OC)ncc1Br` [Example 3-84] are 1000 nM, 80 nM and 10 nM.
In the case of `CNC1CCN(c2ccc(Nc3ncc(Cl)c(Nc4ccccc4S(=O)(=O)C(C)C)n3)c(OC)c2)C1` (stereo not drawn) [Example 28-21], the IC50 in assay [1] stood at 100 nM; in assay [2] (Mus musculus, 4T1) it was 230 nM; in assay [3], 1.3 nM.
For `CCOc1ccc(-c2ccc(OC)cc2)cc1Nc1ncc(Br)c(Nc2ccccc2S(=O)(=O)NC)n1` [Example 3-30], in that order: 600 nM, 3000 nM and 69 nM.
On the same counts, the results for `COc1cc(OC2CCN(C)CC2)ccc1Nc1ncc(Cl)c(Nc2ccccc2S(=O)(=O)NC(C)C)n1` [Example 19-7] are 300 nM, 110 nM and 2.1 nM.
On to `COc1cc(-n2cncn2)ccc1Nc1ncc(Cl)c(Nc2ccccc2S(=O)(=O)C(C)C)n1` [Example 28-4], for which the concentration for half-maximal inhibition (IC50) in assay [1] is 300 nM; in assay [2] (Mus musculus, 4T1), 300 nM; in assay [3], 7.5 nM.
For the molecule `CNS(=O)(=O)c1ccccc1Nc1nc(Nc2ccccc2C)ncc1Br` [Example 3-7], the half-inhibitory concentration (IC50) in assay [1] was determined as 450 nM; in assay [2] (Mus musculus, 4T1), 2000 nM; in assay [3], 16 nM.
On the same counts, the results for `CCC(CC)NS(=O)(=O)c1ccccc1Nc1nc(Nc2ccc(N3CCOCC3)cc2OC)ncc1Cl` [Example 23-6] are 1000 nM, 570 nM and 16 nM.
On the same counts, the results for `CNC(=O)c1ccccc1Nc1nc(Nc2ccc(N3CCN4CCOC[C@@H]4C3)cc2OC)ncc1Cl` [Example 7-16] are 200 nM, 420 nM and 6.4 nM.
In the case of `COc1c(Nc2ncc(Cl)c(Nc3ccccc3S(=O)(=O)NC(C)C)n2)ccc(N2CCOCC2)c1F` [Example 19-11], the IC50 was above 10000 nM in assay [1]; 2000 nM in assay [2] (Mus musculus, 4T1); 38 nM in assay [3].
As for `CNC(=O)c1ccccc1Nc1nc(Nc2ccc(N3CCC(O)CC3)cc2OC)ncc1Cl` [Example 7-8], the IC50 in assay [1] is 800 nM; in assay [2] (Mus musculus, 4T1), 1000 nM; in assay [3], 8.7 nM.
For `CNS(=O)(=O)c1ccccc1Nc1nc(Nc2cc(N3CCOCC3)ccc2C)ncc1Br` [Example 3-20], in that order: 220 nM, 300 nM and 16 nM.
For `CNC(=O)c1ccccc1Nc1nc(Nc2ccc(N3CCOCC3)c3c2ccn3C)ncc1Cl` [Example 7-29], in that order: 2000 nM, 480 nM and 57 nM.
For `COc1cc(N2CCC[C@@H](C(N)=O)C2)ccc1Nc1ncc(Cl)c(Nc2ccccc2S(=O)(=O)C2CC2)n1` [Example 30-6], the 50% inhibitory concentration (IC50) in assay [1] is 1000 nM; in assay [2] (Mus musculus, 4T1), 1030 nM; in assay [3] it was 15 nM.
For `CNC(=O)c1cc(N2CCN(C)CC2)ccc1Nc1nc(Nc2ccc(F)cc2OC)ncc1Cl` [Example 16-2], in that order: above 10000 nM, 600 nM and 6 nM.
For `COc1cc(N2CCC(NC(C)=O)C2)ccc1Nc1ncc(Cl)c(Nc2ccccc2S(=O)(=O)NC2CCC2)n1` (stereo not drawn) [Example 24-3], in that order: 300 nM, 1080 nM and 1 nM.
Take `CNC(=O)c1ccccc1Nc1nc(Nc2ccc(N3CCC(C(N)=O)CC3)cc2OC)ncc1Cl` [Example 7-13]: the half-maximal inhibitory concentration (IC50) in assay [1] was found to be 800 nM; in assay [2] (Mus musculus, 4T1), 1220 nM; in assay [3] it was 5.5 nM.
On the same counts, the results for `CCS(=O)(=O)c1ccccc1Nc1nc(Nc2ccc(N3CCC(N4CCN(C)CC4)CC3)cc2OC)ncc1Cl` [Example 27-9] are 500 nM, 360 nM and 4.2 nM.
On the same counts, the results for `CNS(=O)(=O)c1ccccc1Nc1nc(Nc2cc(F)ccc2OC)ncc1Cl` [Example 20-23] are 490 nM, 3000 nM and 30 nM.
For `COc1cc(OC)c(OC)cc1Nc1ncc(Cl)c(Nc2ccccc2S(=O)(=O)C(C)C)n1` [Example 28-30], in that order: 900 nM, 110 nM and 2.3 nM.
Consider `CNS(=O)(=O)c1ccccc1Nc1nc(Nc2ccc(C)cc2F)ncc1Br` [Example 3-4], for which the IC50 in assay [1] is 530 nM; in assay [2] (Mus musculus, 4T1) it was 2000 nM; in assay [3], 32 nM.
On the same counts, the results for `CNS(=O)(=O)c1ccccc1Nc1nc(Nc2ccc(OCCCN3CCN(C)CC3)cc2OC)ncc1Br` [Example 3-72] are 110 nM, 60 nM and 2.1 nM.
On to `CCCS(=O)(=O)c1ccccc1Nc1nc(Nc2ccc(N3CCC(O)C3)cc2OC)ncc1Cl` (stereo not drawn) [Example 26-28], for which the IC50 in assay [1] stood at 500 nM; in assay [2] it was 1520 nM; in assay [3], 2.1 nM.
In the case of `CCNC(=O)c1cc(F)ccc1Nc1nc(Nc2ccc(N3CCOCC3)cc2OC)ncc1Cl` [Example 14-5], the IC50 in assay [1] was above 10000 nM; in assay [2] (Mus musculus, 4T1), 1000 nM; in assay [3] it was 37 nM.
On the same counts, the results for `COc1cc(N2CCC(N3CCCCC3)CC2)ccc1Nc1ncc(Cl)c(Nc2ccccc2S(=O)(=O)C(C)C)n1` [Example 28-8] are 400 nM, 370 nM and 4.6 nM.
For `CNS(=O)(=O)c1ccccc1Nc1nc(Nc2cc(OC)ccc2OC)ncc1[N+](=O)[O-]` [Example 1, 2-[2-(2,5-Dimethoxy-phenylamino)-5-nitro-pyrimidin-4-ylamino]-N-methyl-benzenesulfonamide], in that order: 700 nM, above 10000 nM and 140 nM.
On the same counts, the results for `CNS(=O)(=O)c1ccccc1Nc1nc(Nc2cc(C(C)C)ccc2C)ncc1Br` [Example 3-18] are 1500 nM, 9000 nM and 130 nM.
As to `COc1cc(NC2CCN(C)CC2)ccc1Nc1ncc(Cl)c(Nc2ccccc2S(=O)(=O)NC(C)C)n1` [Example 19-32], the IC50 in assay [1] was 200 nM; in assay [2] (Mus musculus, 4T1) it was 310 nM; in assay [3], 1.4 nM.
For `COc1cc(F)ccc1Nc1ncc(Cl)c(Nc2ccccc2S(=O)(=O)NCC(F)(F)F)n1` [Example 16C], in that order: 900 nM, above 10000 nM and 28 nM.
On the same counts, the results for `CCCS(=O)(=O)c1ccccc1Nc1nc(Nc2ccc(N3CC(C)N(C(C)=O)C(C)C3)cc2OC)ncc1Cl` (stereo not drawn) [Example 26-7] are 500 nM, 950 nM and 11 nM.
For `CNS(=O)(=O)c1ccccc1Nc1nc(Nc2ccc(N3CCSCC3)cc2OC)ncc1Br` [Example 3-41], in that order: above 10000 nM, 430 nM and 22 nM.
For `CNC(=O)c1c(C)cccc1Nc1nc(Nc2ccc(N3CCC(N4CCCCC4)CC3)cc2OC)ncc1Cl` [Example 10-2], the concentration for half-maximal inhibition (IC50) in assay [1] was 900 nM; in assay [2] (Mus musculus, 4T1), 1060 nM; in assay [3] it was 26 nM.
For `CCOCCOC1CCN(c2ccc(Nc3ncc(Cl)c(Nc4ccccc4C(=O)NC)n3)c(OC)c2)CC1` [Example 7-9], in that order: 1000 nM, 850 nM and 8.2 nM.
In the case of `CCCS(=O)(=O)c1ccccc1Nc1nc(Nc2ccc(N3CCC(N4CCCC4)CC3)cc2OC)ncc1Cl` [Example 26-29], the IC50 was 310 nM in assay [1]; 260 nM in assay [2] (Mus musculus, 4T1); below 1 nM in assay [3].
For `CNS(=O)(=O)c1ccccc1Nc1nc(Nc2ccc(OC3CCN(C(C)=O)CC3)cc2OC)ncc1Br` [Example 3-74], in that order: 100 nM, 150 nM and 15 nM.
On the same counts, the results for `CCNC(=O)c1ccccc1Nc1nc(Nc2ccc(N3CCC(N4CCCC4)CC3)cc2OC)ncc1Cl` [Example 9-4] are 200 nM, 730 nM and 13 nM.
For `CNS(=O)(=O)c1ccccc1Nc1nc(Nc2cc(C(=O)NC3CCCCC3)ccc2C)ncc1Br` [Example 3-23], in that order: 390 nM, 500 nM and 38 nM.
